Results on 16 compounds are retold here after patent EP2125859B1, “ESTRATRIENE DERIVATIVES AND THEIR USES AS 17BETA-HYDROXYSTEROID DEHYDROGENASE INHIBITORS” (Abbott Products GmbH, priority 2006, dated 2008).

Assay [1] deals with T1, recombinant human 17β-HSD1 (Homo sapiens, UniProt P14061).
T1 construct: made in house; host or cells: Sf9 insect cells (baculovirus, Bac to Bac Expression System)
T1 sequence (P14061 1-328): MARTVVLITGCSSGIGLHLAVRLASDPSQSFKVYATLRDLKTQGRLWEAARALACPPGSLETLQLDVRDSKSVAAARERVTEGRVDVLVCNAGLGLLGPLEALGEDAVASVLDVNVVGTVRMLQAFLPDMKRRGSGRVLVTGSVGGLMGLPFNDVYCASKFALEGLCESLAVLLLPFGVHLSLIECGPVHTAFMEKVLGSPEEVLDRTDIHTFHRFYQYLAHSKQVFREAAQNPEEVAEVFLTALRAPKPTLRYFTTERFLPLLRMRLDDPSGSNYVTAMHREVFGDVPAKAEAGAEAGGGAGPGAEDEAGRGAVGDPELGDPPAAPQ
The assay can be described thus: Inhibition of recombinant human 17β-HSD1 (HPLC assay, conversion of 3H-estrone to estradiol). Format: biochemical. Conditions: 30 nM 3H-estrone, 1 mM NADPH, 30 min at RT; for inhibition at 0.1 µM / inhibition at 1 µM: 0.5 h, read-out: inhibition of rec. 17β-HSD1. As to the method: Inhibition of the 17β-hydroxysteroid dehydrogenase type 1 enzyme 17β-HSD1 purification: Recombinant baculovirus was generated by the "Bac to Bac Expression System" (Invitrogen). Recombinant bacmid was transfected to Sf9 insect cells using "Cellfectin Reagent" (Invitrogen). 60h later cells were harvested; the microsomal fraction was isolated as described by Puranen et al. (1994). Aliquots were stored frozen until determination of enzymatic activity.
Assay - Inhibition of recombinant human 17β-HSD1: Recombinant protein (0.1 µg/ml) was incubated in 20 mM KH2PO4 pH 7.4 with 30 nM 3H-estrone and 1 mM NADPH for 30 min at RT, in the presence of potential inhibitors at concentrations of 1 µM or 0.1 µM. Inhibitor stock solutions were prepared in DMSO. Final concentration of DMSO was adjusted to 1 % in all samples. The enzyme reaction was stopped by addition of 10 % trichloroacetic acid (final concentration). Samples were centrifuged in a microtiter plate at 4000 rpm for 10 min. Supernatants were applied to reverse phase HPLC on a Waters Symmetry C18 column, equipped with a Waters Sentry Guard column. Isocratic HPLC runs were performed at RT at a flow rate of 1 ml/min of acetonitrile:water 48:52 as running solvent. Radioactivity was monitored in the eluate by a Packard Flow Scintillation Analyzer. Total radioactivity for estrone and estradiol were determined in each sample and percent conversion of estrone to estradiol was calculated according to the following formula: [formula] [formula]
The values "% inhibition" were determined for exemplified compounds, and the results are summarized in table 4 (for 17β-HSD1). table 4: HSD 1 inhibition values in % of selected compounds of formula I

The target of the next assay is T2, 17β-HSD3 (Homo sapiens, UniProt P37058).
T2 construct: expressed in transfected cells; host or cells: MCF-7 cells stably expressing 17β-HSD3
T2 sequence (P37058 1-310): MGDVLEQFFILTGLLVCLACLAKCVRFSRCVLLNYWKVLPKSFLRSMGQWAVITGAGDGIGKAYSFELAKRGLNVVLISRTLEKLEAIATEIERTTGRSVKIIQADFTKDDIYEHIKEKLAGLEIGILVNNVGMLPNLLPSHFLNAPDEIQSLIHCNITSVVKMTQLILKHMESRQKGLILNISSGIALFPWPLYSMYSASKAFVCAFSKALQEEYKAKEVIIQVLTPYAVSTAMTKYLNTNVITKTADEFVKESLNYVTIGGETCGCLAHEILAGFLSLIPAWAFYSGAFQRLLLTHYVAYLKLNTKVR
The assay can be described thus: Inhibition of 17β-HSD3 in MCF-7 cell lines stably expressing the enzyme (HPLC, tritium labeled androstenedione). Format: cell-based. Particulars: MCF7, MCF-7 cells expressing 17β-HSD3, androstenedione 2 nM. The method, then: The compounds were screened in respect of 17β-HSD3 enzyme activity in vitro on established MCF-7 cell lines, each stably expressing the 17β-HSD3 enzyme. The interconversion of substrate by 17β-HSD3 and the 17β-HSD3 inhibiting activity of chemical compounds in these cell lines were detected by HPLC system.
Varying amounts of the test compounds were incubated in the growth medium of the 17β-HSD3 expressing cells together tritium labeled androstenedione (2 nM). The medium samples were removed after exact incubation time and the reaction is stopped by trichloroacetic acid (TCA). The samples were analyzed by HPLC-coupled flow scintillation analysis.
Conversion: The 17β-HSD3 inhibiting activity of an individual test compound was calculated by comparing the conversion of a control sample without any test compound (referred to as "Negative Control") to the (reduced) conversion of the test sample containing the particular compound to be tested (referred to as "Test Sample"). [formula]
Two concentrations of each compound were used. The number of the compound refers to the numbers indicated in the Experimental Section.
The values "% inhibition" were determined for exemplified compounds, and the results are summarized in table 5 (HSD 3). table 5: 17β-HSD3 inhibition values in % of selected compounds of formula I

For the compound `C[C@]12CC[C@@H]3c4ccc(O)cc4CC[C@H]3[C@@H]1[C@H](CCn1cc(-c3ccc(F)cc3F)nn1)CC2=O` [Compound 3, 3-Hydroxy-15β-{2-[4-(2,4-difluoro-phenyl)-[1,2,3]triazol-1-yl]-ethyl}-estra-1,3,5(10)-trien-17-one], in assay [1] (100 nM inhibitor), the inhibition at 0.1 µM is 86%. Further, the inhibition at 1 µM in assay [1] (1 µM inhibitor) turned out to be 96%.
As for `CC(C)Cc1cn(CCC[C@H]2CC(=O)[C@@]3(C)CC[C@@H]4c5ccc(O)cc5CC[C@H]4[C@H]23)nn1` [Compound 31, 3-Hydroxy-15-[3-(4-isobutyl-[1,2,3]triazol-1-yl)-propyl]-13-methyl-6,7,8,9,11,12,13,14,15,16-decahydro-cyclopenta[a]phenanthren-17-one], in assay [1] (100 nM inhibitor), the inhibition at 0.1 µM turned out to be 32%. Besides, the inhibition at 1 µM in assay [1] (1 µM inhibitor) was found to be 82%.
Regarding `C[C@]12CC[C@@H]3c4ccc(O)cc4CC[C@H]3[C@@H]1[C@H](CCn1cc(-c3ccccc3F)nn1)CC2=O` [Compound 7, 3-Hydroxy-15β-{2-[4-(2-fluoro-phenyl)-[1,2,3]triazol-1-yl]-ethyl}-estra-1,3,5(10)-trien-17-one], in assay [1] (100 nM inhibitor), the inhibition at 0.1 µM worked out at 81%. The inhibition at 1 µM in assay [1] (1 µM inhibitor) amounted to 94%. At 17β-HSD3, this compound registered an inhibition at 1 µM of 12% and an inhibition at 10 µM of 36%.
Regarding `CCCCn1cc(CCCC2CC(=O)[C@@]3(C)CC[C@@H]4c5ccc(O)cc5CC[C@H]4[C@H]23)nn1` (stereo partly drawn) [Compound 300, 15-[3-(1-butyl-1H-1,2,3-triazol-4-yl)propyl]-3-hydroxyestra-1(10),2,4-trien-17-one], the inhibition at 0.1 µM in assay [1] (100 nM inhibitor) came to 85%. In addition, the inhibition at 1 µM in assay [1] (1 µM inhibitor) was 88%. At 17β-HSD3, this compound yielded an inhibition at 1 µM of 29% and an inhibition at 10 µM of 61%.
Regarding `C[C@]12CC[C@@H]3c4ccc(O)cc4CC[C@H]3[C@@H]1[C@H](CCn1cc(-c3cccc(O)c3)nn1)CC2=O` [Compound 2, 3-Hydroxy-15β-{2-[4-(3-hydroxy-phenyl)-[1,2,3]triazol-1-yl]-ethyl}-estra-1,3,5(10)-trien-17-one], the inhibition at 0.1 µM in assay [1] (100 nM inhibitor) was determined as 88%. The inhibition at 1 µM in assay [1] (1 µM inhibitor) stood at 97%.
On to `C[C@]12CC[C@@H]3c4ccc(O)cc4CC[C@H]3[C@@H]1[C@H](CCn1cc(-c3ccc(C(F)(F)F)cc3)nn1)CC2=O` [Compound 10, 3-Hydroxy-15β-{2-[4-(4-trifluoromethyl-phenyl)-[1,2,3]triazol-1-yl]-ethyl}-estra-1,3,5(10)-trien-17-one], for which the inhibition at 0.1 µM in assay [1] (100 nM inhibitor) is 83%. For the same compound, the inhibition at 1 µM in assay [1] (1 µM inhibitor) stood at 93%.
On the same counts, the results for `C[C@]12CC[C@@H]3c4ccc(O)cc4CC[C@H]3[C@@H]1[C@H](CCCn1cc(-c3ccc(F)cc3F)nn1)CC2=O` [Compound 28, 3-Hydroxy-15β-{3-[4-(2,4-difluoro-phenyl)-[1,2,3]triazol-1-yl]-propyl}-estra-1,3,5(10)-trien-17-one] are 40% and 83%.
For `C[C@]12CC[C@@H]3c4ccc(O)cc4CC[C@H]3[C@@H]1[C@H](CCCn1cc(CC3CCCCC3)nn1)CC2=O` [Compound 21, 3-Hydroxy-15β-[3-(4-cyclohexylmethyl-[1,2,3]triazol-1-yl)-propyl]-estra-1,3,5(10)-trien-17-one], in that order: 50% and 86%.
For `C[C@]12CC[C@@H]3c4ccc(O)cc4CC[C@H]3[C@@H]1[C@H](CCn1cc(CCc3ccccc3)nn1)CC2=O` [Compound 1, 3-Hydroxy-15ß-[2-(4-phenethyl-[1,2,3]triazol-1-yl)-ethyl]-estra-1,3,5(10)-trien-17-one], in that order: 92% and 98%.
With `COC(=O)c1ccc(-c2cn(CCC[C@@H]3CC(=O)[C@@]4(C)CC[C@@H]5c6ccc(OC)cc6CC[C@H]5[C@H]34)nn2)cc1` [Compound 89, 4-{1-[3-(3-Methoxy-15β-17-oxo-estra-1,3,5(10)-trien-15-yl)-propyl]-1H-[1,2,3]triazol-4-yl}-benzoic acid methyl ester], the “inhibition of rec. 17β-HSD1” value in assay [1] (100 nM inhibitor) came out at 11%; in assay [1] (1 µM inhibitor), 52%.
Turning to `C[C@]12CC[C@@H]3c4ccc(O)cc4CC[C@H]3[C@@H]1[C@H](CCn1cc(-c3cccc(C(F)(F)F)c3)nn1)CC2=O` [Compound 9, 3-Hydroxy-15β-{2-[4-(3-trifluoromethyl-phenyl)-[1,2,3]triazol-1-yl]-ethyl}-estra-1,3,5(10)-trien-17-one], the inhibition at 0.1 µM in assay [1] (100 nM inhibitor) was determined as 84%. For the same compound, the inhibition at 1 µM in assay [1] (1 µM inhibitor) is 93%.
Consider `C[C@]12CC[C@@H]3c4ccc(O)cc4CC[C@H]3[C@@H]1[C@H](CCCn1cc(-c3ccc(OC(F)(F)F)cc3)nn1)CC2=O` [Compound 32, 3-Hydroxy-15β-{3-[4-(4-trifluoromethoxy-phenyl)-[1,2,3]triazol-1-yl]-propyl}-estra-1,3,5(10)-trien-17-one], for which the inhibition at 0.1 µM in assay [1] (100 nM inhibitor) came out at 67%. The inhibition at 1 µM in assay [1] (1 µM inhibitor) was 81%.
For `C[C@]12CC[C@@H]3c4ccc(O)cc4CC[C@H]3[C@@H]1[C@H](CCCn1cc(-c3cc(F)cc(F)c3)nn1)CC2=O` [Compound 18, 3-Hydroxy-15ß-{3-[4-(3,5-Difluoro-phenyl)-[1,2,3]triazol-1-yl]-propyl}-estra-1,3,5(10)-trien-17-one], in that order: 64% and 88%.
For `C[C@]12CC[C@@H]3c4ccc(O)cc4CC[C@H]3[C@@H]1[C@H](CCn1cc(-c3ccc(OC(F)(F)F)cc3)nn1)CC2=O` [Compound 13, 3-Hydroxy-15β-{2-[4-(4-trifluoromethoxy-phenyl)-[1,2,3]triazol-1-yl]-ethyl}-estra-1,3,5(10)-trien-17-one], in that order: 83% and 92%.
On the same counts, the results for `COc1ccc(-c2cn(CC[C@@H]3CC(=O)[C@@]4(C)CC[C@@H]5c6ccc(O)cc6CC[C@H]5[C@H]34)nn2)cc1` [Compound 11, 3-Hydroxy-15β-{2-[4-(4-methoxy-phenyl)-[1,2,3]triazol-1-yl]-ethyl}-estra-1,3,5(10)-trien-17-one] are 75% and 93%.
`CC(C)CCc1cn(CCC[C@H]2CC(=O)[C@@]3(C)CC[C@@H]4c5ccc(O)cc5CC[C@H]4[C@H]23)nn1` [Compound 30, 3-hydroxy-15-[3-(4-isopentyl-[1,2,3]triazol-1-yl)-propyl]-13-methyl-6,7,8,9,11,12,13,14,15,16-decahydro-cyclopenta[a]phenanthren-17-one]: in assay [1] (100 nM inhibitor), the inhibition at 0.1 µM stood at 25%. The inhibition at 1 µM in assay [1] (1 µM inhibitor) worked out at 82%.

A word on the inhibition: it is how much of the control response was suppressed.
